Counter-ions that a name gives are not always drawn.

Compound `Cc1cc(F)ccc1[C@H]1CN(C(=O)C2CCN(C(=O)CO)CC2)CC[C@@H]1C(=O)N(C)[C@@H](C)c1cc(C(F)(F)F)cc(C(F)(F)F)c1` (hydrate or solvate) [Example 152, (3S,4S)—N-{(1S)-1-[3,5-bis(trifluoromethyl)phenyl]ethyl}-3-(4-fluoro-2-methylphenyl)-1-[(1-glycoloylpiperidin-4-yl)carbonyl]-N-methylpiperidine-4-carboxamide] came in with a melting point of 108 to 116 °C.

On to `Cc1cc(F)ccc1[C@@H]1CN(C(C)CO)CC[C@H]1C(=O)N(C)Cc1cc(C(F)(F)F)cc(C(F)(F)F)c1` (relative stereo) (as salt: hydrochloride) [Example 120, (3R*,4R*)—N-[3,5-bis(trifluoromethyl)benzyl]-3-(4-fluoro-2-methylphenyl)-1-(2-hydroxy-1-methylethyl)-N-methylpiperidine-4-carboxamide monohydrochloride], for which the melting point lay within 234 to 236 °C. Under `Cc1cc(F)ccc1[C@@H]1CN(C(C)(C)C(N)=O)CC[C@H]1C(=O)N(C)Cc1cc(C(F)(F)F)cc(C(F)(F)F)c1` (relative stereo) (as salt: hydrochloride) [Example 113, (3R*,4R*)-1-(2-amino-1,1-dimethyl-2-oxoethyl)-N-[3,5-bis(trifluoromethyl)benzyl]-3-(4-fluoro-2-methylphenyl)-N-methylpiperidine-4-carboxamide monohydrochloride] stands 209 to 211 °C. Regarding `Cc1cc(F)ccc1[C@@H]1CN(CC(N)=O)CC[C@H]1C(=O)N(C)Cc1cc(C(F)(F)F)cc(C(F)(F)F)c1` (relative stereo) (as salt: hydrochloride) (hydrate or solvate) [Example 112, (3R*,4R*)-1-(2-amino-2-oxoethyl)-N-[3,5-bis(trifluoromethyl)benzyl]-3-(4-fluoro-2-methylphenyl)-N-methylpiperidine-4-carboxamide monohydrochloride], the melting point was 175 to 177 °C. `Cc1cc(F)ccc1[C@H]1CN(C(=O)c2cncnc2)CC[C@@H]1C(=O)N(C)[C@@H](C)c1cc(C(F)(F)F)cc(C(F)(F)F)c1` (hydrate or solvate) [Example 158, (3S,4S)—N-{(1S)-1-[3,5-bis(trifluoromethyl)phenyl]ethyl}-3-(4-fluoro-2-methylphenyl)-N-methyl-1-(pyrimidin-5-ylcarbonyl)piperidine-4-carboxamide] returned a melting point of 185 to 188 °C.

`Cc1cc(F)ccc1[C@@H]1CN(CC(=O)N2CCC(O)CC2)CC[C@H]1C(=O)N(C)Cc1cc(C(F)(F)F)cc(C(F)(F)F)c1` (relative stereo) (as salt: hydrochloride) [Example 104, (3R*,4R*)—N-[3,5-bis(trifluoromethyl)benzyl]-3-(4-fluoro-2-methylphenyl)-1-[2-(4-hydroxypiperidin-1-yl)-2-oxoethyl]-N-methylpiperidine-4-carboxamide monohydrochloride] showed a melting point of 220 to 224 °C.

The compound `CC(=O)Nc1ccc(N2CC[C@@H](C(=O)N(C)Cc3cc(C(F)(F)F)cc(C(F)(F)F)c3)[C@H](c3ccc(F)cc3C)C2)nc1` (relative stereo) (as salt: hydrochloride) (hydrate or solvate) [Example 129, (3R*,4R*)-1-[5-(acetylamino)pyridin-2-yl]-N-[3,5-bis(trifluoromethyl)benzyl]-3-(4-fluoro-2-methylphenyl)-N-methylpiperidine-4-carboxamide monohydrochloride] had a melting point of 213 to 215 °C. Take `Cc1cc(F)ccc1[C@@H]1CN(C2CCN(C(=O)C(N)=O)CC2)CC[C@H]1C(=O)N(C)Cc1cc(C(F)(F)F)cc(C(F)(F)F)c1` (relative stereo) (as salt: hydrochloride) (hydrate or solvate) [Example 108, (3R*,4R*)-1′-[amino(oxo)acetyl]-N-[3,5-bis(trifluoromethyl)benzyl]-3-(4-fluoro-2-methylphenyl)-N-methyl-1,4′-bipiperidine-4-carboxamide monohydrochloride]: the melting point was 175 to 176 °C.
